According to ChEMBL document CHEMBL5444388, “Affinity Phenotypic Cellular Literature for EUbOPEN Chemogenomic Library” (2024):

Tests used:
Assay type in all cases: functional, cell-based
Set-up in all cases: recommended concentration 100 nM
[1] = target: Centromere-associated protein E (Homo sapiens) (UniProt Q02224); assay: Affinity Phenotypic Cellular interaction: (Cell-growth inhibition assays (growth inhibitory effect colon cancer cell line BC-3)) EUB0000734a CENPE; conditions: Affinity Phenotypic Cellular Source Knowledge https://pubmed.ncbi.nlm.nih.gov/20167803/
Sequence of Centromere-associated protein E (Homo sapiens) (Q02224 whole entry): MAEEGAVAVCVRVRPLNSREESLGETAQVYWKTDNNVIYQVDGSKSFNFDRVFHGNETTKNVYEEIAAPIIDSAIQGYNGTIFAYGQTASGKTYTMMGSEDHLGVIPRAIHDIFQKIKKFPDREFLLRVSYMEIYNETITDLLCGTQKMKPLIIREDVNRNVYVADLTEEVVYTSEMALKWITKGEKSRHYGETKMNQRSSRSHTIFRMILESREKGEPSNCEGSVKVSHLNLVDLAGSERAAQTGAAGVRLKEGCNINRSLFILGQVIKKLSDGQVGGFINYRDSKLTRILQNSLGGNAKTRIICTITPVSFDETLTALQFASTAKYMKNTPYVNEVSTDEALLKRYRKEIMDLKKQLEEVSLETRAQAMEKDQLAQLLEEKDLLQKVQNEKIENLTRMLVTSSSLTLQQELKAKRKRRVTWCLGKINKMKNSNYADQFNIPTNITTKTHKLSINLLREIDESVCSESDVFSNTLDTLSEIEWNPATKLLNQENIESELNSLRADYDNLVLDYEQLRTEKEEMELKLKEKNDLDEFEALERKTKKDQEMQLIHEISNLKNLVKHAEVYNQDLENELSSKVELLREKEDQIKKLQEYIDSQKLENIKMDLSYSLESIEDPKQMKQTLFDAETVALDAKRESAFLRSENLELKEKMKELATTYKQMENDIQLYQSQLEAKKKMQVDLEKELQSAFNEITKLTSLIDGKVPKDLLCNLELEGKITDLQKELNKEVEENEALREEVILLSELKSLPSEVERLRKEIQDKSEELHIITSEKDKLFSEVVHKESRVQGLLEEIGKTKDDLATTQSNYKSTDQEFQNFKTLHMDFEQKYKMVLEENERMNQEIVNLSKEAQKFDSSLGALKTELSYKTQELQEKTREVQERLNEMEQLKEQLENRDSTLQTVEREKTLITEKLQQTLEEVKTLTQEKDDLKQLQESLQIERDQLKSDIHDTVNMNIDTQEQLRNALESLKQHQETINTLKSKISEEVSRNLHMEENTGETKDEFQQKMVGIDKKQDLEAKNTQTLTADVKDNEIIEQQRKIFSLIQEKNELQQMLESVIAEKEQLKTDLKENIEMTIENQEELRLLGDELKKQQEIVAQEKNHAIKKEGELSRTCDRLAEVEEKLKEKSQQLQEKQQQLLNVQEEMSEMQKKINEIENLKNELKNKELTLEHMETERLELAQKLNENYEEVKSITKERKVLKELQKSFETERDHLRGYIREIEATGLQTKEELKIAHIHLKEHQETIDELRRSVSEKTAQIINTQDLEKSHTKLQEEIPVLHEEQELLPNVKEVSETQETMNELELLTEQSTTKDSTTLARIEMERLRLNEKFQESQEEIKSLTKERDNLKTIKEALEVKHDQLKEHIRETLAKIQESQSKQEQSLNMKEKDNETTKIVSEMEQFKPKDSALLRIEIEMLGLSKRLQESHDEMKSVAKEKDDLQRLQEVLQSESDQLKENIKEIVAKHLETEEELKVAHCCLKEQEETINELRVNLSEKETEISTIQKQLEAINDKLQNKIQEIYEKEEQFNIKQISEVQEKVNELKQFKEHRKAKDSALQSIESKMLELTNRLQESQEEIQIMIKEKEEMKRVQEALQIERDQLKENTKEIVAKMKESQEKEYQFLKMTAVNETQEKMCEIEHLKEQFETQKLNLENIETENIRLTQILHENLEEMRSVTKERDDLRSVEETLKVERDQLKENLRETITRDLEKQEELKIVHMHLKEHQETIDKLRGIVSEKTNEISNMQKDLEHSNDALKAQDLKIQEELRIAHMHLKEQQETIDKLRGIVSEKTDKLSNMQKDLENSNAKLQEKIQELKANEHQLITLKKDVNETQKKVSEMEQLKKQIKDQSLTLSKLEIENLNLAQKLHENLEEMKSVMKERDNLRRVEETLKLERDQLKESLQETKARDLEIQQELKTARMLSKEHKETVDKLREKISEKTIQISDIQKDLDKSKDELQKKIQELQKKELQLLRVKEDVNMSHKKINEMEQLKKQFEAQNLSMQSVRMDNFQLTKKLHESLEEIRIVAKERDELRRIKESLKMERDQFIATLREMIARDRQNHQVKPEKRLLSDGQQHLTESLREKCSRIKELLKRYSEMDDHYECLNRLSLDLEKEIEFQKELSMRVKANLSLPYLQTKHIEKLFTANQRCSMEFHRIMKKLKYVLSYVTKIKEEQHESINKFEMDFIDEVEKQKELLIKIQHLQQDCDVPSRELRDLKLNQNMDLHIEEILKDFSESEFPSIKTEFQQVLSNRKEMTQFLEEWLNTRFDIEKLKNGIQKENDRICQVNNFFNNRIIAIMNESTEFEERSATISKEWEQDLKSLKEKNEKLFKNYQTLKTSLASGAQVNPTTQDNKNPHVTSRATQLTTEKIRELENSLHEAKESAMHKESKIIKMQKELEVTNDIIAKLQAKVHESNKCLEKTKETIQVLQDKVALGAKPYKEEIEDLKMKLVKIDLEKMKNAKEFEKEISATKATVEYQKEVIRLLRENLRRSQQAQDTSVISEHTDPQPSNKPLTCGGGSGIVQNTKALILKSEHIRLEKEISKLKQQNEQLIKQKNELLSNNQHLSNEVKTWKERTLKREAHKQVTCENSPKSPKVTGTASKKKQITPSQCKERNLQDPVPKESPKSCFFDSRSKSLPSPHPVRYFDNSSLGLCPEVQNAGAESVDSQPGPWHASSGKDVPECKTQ

[2] = target: Centromere-associated protein E (Homo sapiens) (UniProt Q02224); assay: Affinity Phenotypic Cellular interaction: (Cell-growth inhibition assays (growth inhibitory effect colon cancer cell line BHT-101)) EUB0000734a CENPE; conditions: Affinity Phenotypic Cellular Source Knowledge https://pubmed.ncbi.nlm.nih.gov/20167803/
[3] = target: Centromere-associated protein E (Homo sapiens) (UniProt Q02224); assay: Affinity Phenotypic Cellular interaction: (Cell-growth inhibition assays (growth inhibitory effect colon cancer cell line BT-20)) EUB0000734a CENPE; conditions: Affinity Phenotypic Cellular Source Knowledge https://pubmed.ncbi.nlm.nih.gov/20167803/
[4] = target: Centromere-associated protein E (Homo sapiens) (UniProt Q02224); assay: Affinity Phenotypic Cellular interaction: (Cell-growth inhibition assays (growth inhibitory effect colon cancer cell line CAL-54)) EUB0000734a CENPE; conditions: Affinity Phenotypic Cellular Source Knowledge https://pubmed.ncbi.nlm.nih.gov/20167803/
[5] = target: Centromere-associated protein E (Homo sapiens) (UniProt Q02224); assay: Affinity Phenotypic Cellular interaction: (Cell-growth inhibition assays (growth inhibitory effect colon cancer cell line CHP-212)) EUB0000734a CENPE; conditions: Affinity Phenotypic Cellular Source Knowledge https://pubmed.ncbi.nlm.nih.gov/20167803/
[6] = target: Centromere-associated protein E (Homo sapiens) (UniProt Q02224); assay: Affinity Phenotypic Cellular interaction: (Cell-growth inhibition assays (growth inhibitory effect colon cancer cell line CML-T1)) EUB0000734a CENPE; conditions: Affinity Phenotypic Cellular Source Knowledge https://pubmed.ncbi.nlm.nih.gov/20167803/
[7] = target: Centromere-associated protein E (Homo sapiens) (UniProt Q02224); assay: Affinity Phenotypic Cellular interaction: (Cell-growth inhibition assays (growth inhibitory effect colon cancer cell line COLO205)) EUB0000734a CENPE; conditions: COLO 205, Affinity Phenotypic Cellular Source Knowledge https://pubmed.ncbi.nlm.nih.gov/20167803/
[8] = target: Centromere-associated protein E (Homo sapiens) (UniProt Q02224); assay: Affinity Phenotypic Cellular interaction: (Cell-growth inhibition assays (growth inhibitory effect colon cancer cell line Detroit562)) EUB0000734a CENPE; conditions: Detroit 562, Affinity Phenotypic Cellular Source Knowledge https://pubmed.ncbi.nlm.nih.gov/20167803/
[9] = target: Centromere-associated protein E (Homo sapiens) (UniProt Q02224); assay: Affinity Phenotypic Cellular interaction: (Cell-growth inhibition assays (growth inhibitory effect colon cancer cell line DLD-1)) EUB0000734a CENPE; conditions: Affinity Phenotypic Cellular Source Knowledge https://pubmed.ncbi.nlm.nih.gov/20167803/
[10] = target: Centromere-associated protein E (Homo sapiens) (UniProt Q02224); assay: Affinity Phenotypic Cellular interaction: (Cell-growth inhibition assays (growth inhibitory effect colon cancer cell line ES-2)) EUB0000734a CENPE; conditions: Affinity Phenotypic Cellular Source Knowledge https://pubmed.ncbi.nlm.nih.gov/20167803/
[11] = target: Centromere-associated protein E (Homo sapiens) (UniProt Q02224); assay: Affinity Phenotypic Cellular interaction: (Cell-growth inhibition assays (growth inhibitory effect colon cancer cell line G-401)) EUB0000734a CENPE; conditions: Affinity Phenotypic Cellular Source Knowledge https://pubmed.ncbi.nlm.nih.gov/20167803/
[12] = target: Centromere-associated protein E (Homo sapiens) (UniProt Q02224); assay: Affinity Phenotypic Cellular interaction: (Cell-growth inhibition assays (growth inhibitory effect colon cancer cell line G-402)) EUB0000734a CENPE; conditions: Affinity Phenotypic Cellular Source Knowledge https://pubmed.ncbi.nlm.nih.gov/20167803/
[13] = target: Centromere-associated protein E (Homo sapiens) (UniProt Q02224); assay: Affinity Phenotypic Cellular interaction: (Cell-growth inhibition assays (growth inhibitory effect colon cancer cell line HCT-15)) EUB0000734a CENPE; conditions: Affinity Phenotypic Cellular Source Knowledge https://pubmed.ncbi.nlm.nih.gov/20167803/
[14] = target: Centromere-associated protein E (Homo sapiens) (UniProt Q02224); assay: Affinity Phenotypic Cellular interaction: (Cell-growth inhibition assays (growth inhibitory effect colon cancer cell line HOS)) EUB0000734a CENPE; conditions: Affinity Phenotypic Cellular Source Knowledge https://pubmed.ncbi.nlm.nih.gov/20167803/
[15] = target: Centromere-associated protein E (Homo sapiens) (UniProt Q02224); assay: Affinity Phenotypic Cellular interaction: (Cell-growth inhibition assays (growth inhibitory effect colon cancer cell line HT-3)) EUB0000734a CENPE; conditions: Affinity Phenotypic Cellular Source Knowledge https://pubmed.ncbi.nlm.nih.gov/20167803/
[16] = target: Centromere-associated protein E (Homo sapiens) (UniProt Q02224); assay: Affinity Phenotypic Cellular interaction: (Cell-growth inhibition assays (growth inhibitory effect colon cancer cell line K-562)) EUB0000734a CENPE; conditions: K562, Affinity Phenotypic Cellular Source Knowledge https://pubmed.ncbi.nlm.nih.gov/20167803/
[17] = target: Centromere-associated protein E (Homo sapiens) (UniProt Q02224); assay: Affinity Phenotypic Cellular interaction: (Cell-growth inhibition assays (growth inhibitory effect lung cancer cell line MV522)) EUB0000734a CENPE; conditions: MV-522, Affinity Phenotypic Cellular Source Knowledge https://pubmed.ncbi.nlm.nih.gov/20167803/
[18] = target: Centromere-associated protein E (Homo sapiens) (UniProt Q02224); assay: Affinity Phenotypic Cellular interaction: (Cell-growth inhibition assays (growth inhibitory effect colon cancer cell line OVCAR-5)) EUB0000734a CENPE; conditions: Affinity Phenotypic Cellular Source Knowledge https://pubmed.ncbi.nlm.nih.gov/20167803/
[19] = target: Centromere-associated protein E (Homo sapiens) (UniProt Q02224); assay: Affinity Phenotypic Cellular interaction: (Cell-growth inhibition assays (growth inhibitory effect colon cancer cell line SCC-25)) EUB0000734a CENPE; conditions: Affinity Phenotypic Cellular Source Knowledge https://pubmed.ncbi.nlm.nih.gov/20167803/
[20] = target: Centromere-associated protein E (Homo sapiens) (UniProt Q02224); assay: Affinity Phenotypic Cellular interaction: (Cell-growth inhibition assays (growth inhibitory effect colon cancer cell line SN12C)) EUB0000734a CENPE; conditions: Affinity Phenotypic Cellular Source Knowledge https://pubmed.ncbi.nlm.nih.gov/20167803/
[21] = target: Centromere-associated protein E (Homo sapiens) (UniProt Q02224); assay: Affinity Phenotypic Cellular interaction: (Cell-growth inhibition assays (growth inhibitory effect colon cancer cell line SNU-475)) EUB0000734a CENPE; conditions: Affinity Phenotypic Cellular Source Knowledge https://pubmed.ncbi.nlm.nih.gov/20167803/
[22] = target: Centromere-associated protein E (Homo sapiens) (UniProt Q02224); assay: Affinity Phenotypic Cellular interaction: (Cell-growth inhibition assays (growth inhibitory effect colon cancer cell line SR)) EUB0000734a CENPE; conditions: Affinity Phenotypic Cellular Source Knowledge https://pubmed.ncbi.nlm.nih.gov/20167803/
[23] = target: Centromere-associated protein E (Homo sapiens) (UniProt Q02224); assay: Affinity Phenotypic Cellular interaction: (Cell-growth inhibition assays (growth inhibitory effect colon cancer cell line SW1990)) EUB0000734a CENPE; conditions: Affinity Phenotypic Cellular Source Knowledge https://pubmed.ncbi.nlm.nih.gov/20167803/
[24] = target: Centromere-associated protein E (Homo sapiens) (UniProt Q02224); assay: Affinity Phenotypic Cellular interaction: (Cell-growth inhibition assays (growth inhibitory effect thyroid cancer cell line SW579)) EUB0000734a CENPE; conditions: Affinity Phenotypic Cellular Source Knowledge https://pubmed.ncbi.nlm.nih.gov/20167803/
[25] = target: Centromere-associated protein E (Homo sapiens) (UniProt Q02224); assay: Affinity Phenotypic Cellular interaction: (Cell-growth inhibition assays (growth inhibitory effect colon cancer cell line WiDr)) EUB0000734a CENPE; conditions: Affinity Phenotypic Cellular Source Knowledge https://pubmed.ncbi.nlm.nih.gov/20167803/

CC(C)Oc1ccc(C(=O)N[C@H](CNC(=O)CN(C)C)Cc2ccc(-c3cn4cccc([C@H](C)O)c4n3)cc2)cc1Cl
GIC50 [1]: 88 nM
GIC50 [2]: 100 nM
GIC50 [3]: 32 nM
GIC50 [4]: 49 nM
GIC50 [5]: 34 nM
GIC50 [6]: 13 nM
GIC50 [7]: 25 nM
GIC50 [8]: 35 nM
GIC50 [9]: 60 nM
GIC50 [10]: 30 nM
GIC50 [11]: 26 nM
GIC50 [12]: 31 nM
GIC50 [13]: 151 nM
GIC50 [14]: 27 nM
GIC50 [15]: 10 µM
GIC50 [16]: 25 nM
GIC50 [17]: 48 nM
GIC50 [18]: 34 nM
GIC50 [19]: 23 nM
GIC50 [20]: 29 nM
GIC50 [21]: 26 nM
GIC50 [22]: 29 nM
GIC50 [23]: 127 nM
GIC50 [24]: 26 nM
GIC50 [25]: 18 nM
